Reference: patent US20240398754A1, “VERATRALDEHYDE, PIPERONYL ALCOHOL, ETHYL 2-AMINO BENZOATE, ISOAMYL CINNAMATE, OR DIETHYL MALONATE AS FOOD ADDITIVES WITH ANTI-INFLAMMATORY PROPERTIES” (NATIONAL UNIVERSITY OF IRELAND, MAYNOOTH, priority 2021, published 2024)

How the values were obtained:
[1] = system: Human THP1 cells; assay: ELISA analysis of IL-10 and TNF expression in media from LPS-stimulated THP1 cells (cytokine release platform); assay type: cell-based; conditions: FIG. 11A-F, compounds at 1 mM, 100 μM and 10 μM for 2 hrs, vs DMSO vehicle
Method: FIG. 10: ELISA analysis of IL-10 and TNF expression in media from cells pretreated with DMSO (vehicle) or (A/B) piperonyl acetate and (C/D) piperonyl isobutyrate for 2 hrs and stimulated with LPS for 24 hrs. Human THP1 cells treated with compounds at (1 mM, 100 μM and 10 μM) and LPS […]. All data are presented as the mean±SEM of three or four independent experiments and were subjected to paired Student's t test.
FIG. 11: ELISA analysis of IL-10 and TNF expression in media from cells pretreated with DMSO (vehicle) or (A/B) vanillin, (C/D) ethyl vanillin and (E/F) divanillin for 2 hrs and stimulated with LPS for 24 hrs. Human THP1 cells treated with compounds at (1 mM, 100 μM and 10 μM) and LPS […]. (G) DH82 cells were treated with veratric acid (1 mM, 500 uM, 250 uM, 125 uM, 60 uM, 30 uM) for 2 hrs and stimulated with LPS for 24 hrs. All data are presented as the mean±SEM of three or four independent experiments and were subjected to paired Student's t test.
THP-1 cells were cultured in RPMI supplemented with 10% (v/v) heat inactivated FBS, penicillin G (100 μg/ml) and streptomycin (100 μg/ml) in a 37° C. humidified chamber under a 5% CO2 atmosphere. Cell morphology and confluence, including media acidification colour change were monitored daily. Twice a week, cells were passaged by removal from flask and centrifugation at 400 G. Cells were cultured for a maximum of 25 passages in order to avoid excessive genetic drift. Cells were seeded at 1×10^6/ml.
Cell supernatant or serum samples were collected and stored at −80° C. prior to analysis. 96-well NUNC “Maxisorb” plates were coated with 100 μl capture antibody diluted to a working concentration in PBS. […] The optical density (OD) value of each well was measured at 450 nm with a correction at 590 nm. A ELx800™ microplate reader with Gen5 Data Analysis Software was used to carry out the reading. The sample concentrations were determined by interpolating the sample absorbance from the known concentrations of the standard curve. Standards were assayed in duplicate while samples were analysed in triplicate. […]

[2] = system: COL2A1; assay: In vitro arthritis model: DH82 supernatant transferred to canine chondrocytes, COL2A1 mRNA by RT-PCR; assay type: cell-based; conditions: FIG. 14(A); DH82 macrophage cells treated with 500 μM for 2 hrs and LPS (100 μg/ml) 3 hours; media transferred to canine chondrocytes (CNC) 24 hours; compared to LPS alone
Method: FIG. 13: (1) DH82 cells are plated and stimulated with the compound, followed by LPS. (2) After 24 hours, TNF has been produced by the cells and (3) This liquid supernatant is removed from the cells and reserved. (4) Chondrocytes are plated and (5) the reserved liquid supernatant containing TNF and other inflammatory cytokines from the DH82 cells is added on top of these cells, thus exposing the cartilage cells to an inflammatory environment, simulating an inflammatory joint. (6) After 24 hours gene expression of COL2A1 is measured.
FIG. 14: (A) DH82 cells were stimulated with DMSO (vehicle) or veratraldehyde (500 μM) for 2 hrs and stimulated with LPS (100 μg/ml) for 3 hours. […] COL2A1 mRNA expression was measured by RT-PCR. (B) Quantitative RT-PCR of mRNA expression of COL2A1 in Canine chondrocytes (CNC) pretreated with DMSO (vehicle), Methyl Isoeugenol, NaOH, Vertic Acid, Folic Acid, Piperonyl Alcohol, Veratraldehyde (500 μM) for 24 hrs. […]
Canine chondrocyte (CNC) cells were cultured in complete CNC media in a 37° C. humidified chamber under a 5% CO2 atmosphere. Cell morphology and confluence were monitored daily. […]
Enriched inflammatory cell supernatant from DH82 cells was prepared by first stimulating seeded DH82 cells with compound, followed by stimulation with LPS for 3 hours. […] After 24 hours, mRNA was harvested from CNC as described above and levels of COL2A1 were assessed. […]

[3] = system: DH82 cells; assay: ELISA of media from LPS-stimulated DH82 cells; assay type: cell-based, canine; conditions: FIG. 11G, 1 mM, 500 uM, 250 uM, 125 uM, 60 uM, 30 uM for 2 hrs, then LPS for 24 hrs
Method: FIG. 3: ELISA analysis of TNF expression in media from cells pretreated with DMSO (vehicle) or Veratraldehyde for 2 hrs and stimulated with LPS for 24 hrs. (A) human THP1 cells treated with Veratraldehyde (200 μM, 100 μM and 50 μM) and LPS (1 mg/ml). (B) human peripheral blood mononuclear cell (PBMC) treated with Veratraldehyde (100 μM) and LPS (100 μg/ml). (C) murine bone-marrow-derived macrophages (BMDMs) isolated from C57BL/6 WT mice treated with Veratraldehyde (100 μM) and LPS (100 μg/ml). (D) Quantitative RT-PCR of mRNA expression of Tnf in PBMCs pretreated with DMSO (vehicle) or veratraldehyde (100 μM) for 2 hrs and stimulated with LPS (100 μg/ml) for 3 hrs. (E and G) TNF was measured from canine macrophage-like cells (DH82) treated with veratraldehyde (1 mM, 500 uM, 200 uM, 100 uM, 50 uM, 10 uM) and LPS for 24 hours by ELISA. (F) Quantitative RT-PCR of mRNA expression of Tnf in DH82 cells pretreated with DMSO (vehicle) or veratraldehyde (500 μM) for 2 hrs and stimulated with LPS (100 μg/ml) for 1.5 and 3 hrs. […] COL2A1 mRNA expression was measured by RT-PCR. […]
DH82 cells were cultured in EMEM supplemented with 10% (v/v) heat inactivated FBS, penicillin G (100 μg/ml) and streptomycin (100 μg/ml) in a 37° C. humidified chamber under a 5% CO2 atmosphere. Cell morphology and confluence were monitored daily. […]

| Structure (SMILES) | anti-inflammatory effect (ELISA analysis of IL-10 and TNF expression in media) [1] | other results |
| --- | --- | --- |
| COc1cc(C=O)cc(-c2cc(C=O)cc(OC)c2O)c1O [divanillin] | does not show an anti-inflammatory effect | – |
| CCOc1cc(C=O)ccc1O [ethyl vanillin] | does not show an anti-inflammatory effect | – |
| COc1cc(C=O)ccc1O [vanillin] | does not show an anti-inflammatory effect | – |
| COc1ccc(C=O)cc1OC [veratraldehyde, 3,4-dimethoxybenzaldehyde] | – | levels of COL2A1 (mRNA expression) in chondrocyte cells [2]: significant restoration |
| COc1ccc(C(=O)O)cc1OC [veratric acid] | – | anti-inflammatory effect (ELISA) [3]: does not show an anti-inflammatory effect |
